# Measurements taken from article PMC8307904, “Synthesis and Structure of Novel Copper(II) Complexes with N,O- or N,N-Donors as Radical Scavengers and a Functional Model of the Active Sites in Metalloenzymes” (International Journal of Molecular Sciences, 2021).
# “Also recorded” adds a separate entry of the source. Read-outs that look alike come from different tables or passages of the source.
# Tests used:
# [1] = ABTS radical assay (free radical scavenging); assay type: biochemical
# Procedure: We investigated the free radical scavenging ability of the selected ligands and their newly synthesised complexes using the ABTS assay. 2,2′-Azinobis-[3-ethylbenzthiazoline-6-sulfonic acid] (ABTS) was dissolved in Milli-Q water to yield a 7 mM solution. The ABTS radical cation solution was prepared by allowing the ABTS solution to react with the K2S2O8 solution (final concentration 2.45 mM) for 16 h in the dark at room temperature. It has been reported that the extinction coefficient of ABTS^•+ radicals at 734 nm is 1.5 × 10^4 mol^−1 L cm^−1. Using the Beer–Lambert law, ABTS^•+ radical concentrations were calculated. To determine the antioxidant capacity of the complex solutions and standard antioxidant (Trolox), the ABTS solution was diluted with 5 mM PBS (pH 7.4) to an absorbance at 732 nm of 0.7 ± 0.1 After the addition of different volumes (0–1 mL) of each compound solution to 2.5 mL of diluted ABTS^•+, the absorbance was measured at 30 min. All samples were analysed in triplicate. The ABTS^•+radical scavenging activity (AA%) was calculated using the following equation: AA% = ((Acontrol − Asample)/(Acontrol)) × 100, where Acontrol is the absorbance of the blank control (containing ABTS^•+ solution without test sample) and Asample is the absorbance of the test sample. The antioxidant activity was described as the 50% inhibition concentration (IC50). The IC50 values were calculated from regression lines where x is the concentration of complex or ligand in mM and y is the percent inhibition of the analysed compound.
# [2] = system: MCF-7 (breast adenocarcinoma); test: in vitro cytotoxicity / proliferation, MCF-7; assay type: cell-based, human; conditions: read-out: IC50 (inhibits proliferation of 50% of cells)
# Excerpt: (§1) For IC50 determination, the human cancer lines A549 (non-small cell lung carcinoma), HT29 (colon adenocarcinoma) and MCF-7 (breast adenocarcinoma), and a healthy mouse fibroblast cell line (BALB/3T3), were used. All tested cell lines were obtained from the American Type Culture Collection (Rockville, MD, USA) and maintained at the Cell Culture Collection of the Hirszfeld Institute of Immunology and Experimental Therapy (Wrocław, Poland). The details of the experimental conditions were described in [69]. […] IC50 values were calculated separately for each experiment, which was repeated 3–5 times.
# [3] = system: HT29 (colon adenocarcinoma); test: in vitro cytotoxicity / proliferation, HT29; assay type: cell-based, human; conditions: read-out: IC50 (inhibits proliferation of 50% of cells)
# Excerpt: as §1
# solubility = assay type: physicochemical
# Procedure: (§2) Among the synthetic compounds used for modelling biological systems, mimetics that are soluble in solvents of neutral pH are particularly favoured because they can penetrate cell membranes and, thus, be absorbed by the organism. […] Additionally, we checked the stability of selected complexes in buffer solution (PBS) at two different time points (0 min and 12 h).
# [4] = system: A549 (non-small cell lung carcinoma); test: in vitro cytotoxicity / proliferation, A549; assay type: cell-based, human; conditions: read-out: IC50 (inhibits proliferation of 50% of cells)
# Excerpt: as §1
# SOD = SOD activity (RANSOD test) in patients' blood samples after addition of the mimetic; assay type: biochemical, human
# Excerpt: (§3) The present study was based on 20 women of the Regional Hospital in Kielce who had previously undergone therapy for diagnosed breast tumour, and 10 healthy volunteers (samples were anonymised). Patients were divided into subgroups those after chemotherapy (n = 10) and after radiotherapy (n = 10). The protocol and procedures were undertaken according to the Helsinki Declaration and were approved by the Bioethics Committee of the Świętokrzyska Medical Chamber in Kielce (permission number 1/2015-B). Before obtaining blood, patients and healthy subjects signed informed consent and agreed to the use of the samples for research purposes. Approximately 5 mL of blood was taken from the patients by venous puncture. Blood samples were collected in 3 mL tubes containing EDTA as an anticoagulant, and in tubes with no anticoagulant. Tubes were centrifuged at 3500 rpm for 15 min to obtain plasma and serum, respectively. Erythrocytes were washed with 0.9% sodium chloride. […]
# (§4) The activities of TAS, SOD, CAT and GPx were measured using commercial kits, according to the manufacturers’ instructions. […]
# The SOD activity was measured with the RANSOD test (Randox Laboratories, United Kingdom) based on the method of McCord and Fridovich. […] The superoxide dismutase activity is measured by the degree of inhibition of this reaction. […] The activity of SOD was measured spectrophotometrically at 505 nm and expressed as U/mL.
# [5] = system: total antioxidant status (TAS); test: TAS level (RANDOX test) in patients' blood samples after addition of the mimetic; assay type: biochemical, human; conditions: post-chemotherapy group, 25 µg/mL, versus samples without complex
# Excerpt: as §3, §4
# The TAS level was evaluated by RANDOX test (Randox Laboratories, United Kingdom) following the method described by Miller et al.. […] Suppression of the blue-green colour of radicals (measured at 600 nm) is proportional to antioxidants’ concentration (TAS). The results were expressed as mmol/L serum.
# CAT = CAT activity (Catalase assay kit) in patients' blood samples after addition of the mimetic; assay type: biochemical, human; conditions: post-chemotherapy group, 25 µg/mL, versus samples without complex
# Excerpt: as §3, with “respectively.” for “respectively. Erythrocytes were washed with 0.9% sodium chloride.”
# as §4
# The CAT activity measurement was measured with the Catalase assay kit (Calbiochem, Merck, Darmstadt, Germany) based on the reaction of the enzyme with methanol in the presence of an optimal concentration of H2O2 [72]. The formaldehyde produced is measured colourimetrically (at 540 nm) with 4-amino-3-hydrazino- 5-mercapto-1,2,4-triazole (Purpald) as the chromogen.
# [6] = system: healthy mouse fibroblast cell line (BALB/3T3); test: in vitro cytotoxicity / proliferation, BALB/3T3; assay type: cell-based; conditions: for IC50: BALB/3T3 normal cell line, read-out: IC50 (inhibits proliferation of 50% of cells)
# Excerpt: as §1
# [7] = stability in buffer solution (PBS) by UV-Vis; assay type: physicochemical; conditions: room temperature, 0 min and 12 h, UV-Vis spectra
# Procedure: as §2
# [8] = parameters: method as in PMID 24406400; conditions: aqueous solution; cited from earlier work
# [9] = ABTS^•+ diluted with 5 mM PBS pH 7.4, absorbance at 30 min, read-out: IC50 (ABTS radical scavenging activity)
compound,measurement,setting,value
"OCCc1ccccn1 [2-(HOCH2CH2)py, 2-(hydroxyethyl)pyridine, reference compound]",IC50,[1]; [9],7000 µM
[Cu(2-(HOCH2)py)3](ClO4)2 [complex 1],IC50,[2],91.7 ± 2.9 µM
same,IC50,[3],98.5 ± 2.7 µM
same,solubility in water,solubility,soluble in water; also recorded: good solubility in water
same,IC50,[4],94.7 ± 3.9 µM
same,SOD activity higher compared to the control group,SOD; post-chemoradiotherapy group with mimetic,4.2 U/mL
same,SOD activity,"SOD; post-chemotherapy group, complex 25 μg/mL of blood",211.91 U/mL
same,increase of total antioxidant status after addition of the mimetic,[5],0.17 U/mL
same,IC50,[1]; [9],260 ± 30 µM
same,IC50,"[1]; Figure 10a and b50, unit inferred, read-out: IC50 (ABTS radical scavenging), unit inferred",260 ± 30 µM
same,increase of CAT enzyme activity after addition of the mimetic,CAT,0.18 U/mL
same,lower cytotoxicity against normal cell line compared to cisplatin,"[6]; BALB/3T3, versus cisplatin",about 30 times
same,IC50,[6],106 ± 4.2 µM
same,stability in buffer solution (PBS),[7],confirmed the stability
"OCc1ccccn1 [2-(HOCH2)py, 2-(hydroxymethyl)pyridine, reference compound]",IC50,[1]; [9],3790 ± 230 µM
"N.N.[Cl][Pt][Cl] [cisplatin, reference compound]",IC50,[3],9.23 ± 0.77 µM
same,IC50,[6],3.33 ± 0.38 µM
"OC(O)(c1ccccn1)c1ccccn1.OC(O)(c1ccccn1)c1ccccn1.[Cu+2].[O-][Cl+3]([O-])([O-])[O-].[O-][Cl+3]([O-])([O-])[O-] [complex 5, [Cu(py2C(OH)2)2](ClO4)2]",solubility in water,solubility,soluble in water
same,IC50,[1]; [9],24500 ± 500 µM
same,stability in buffer solution (PBS),[7],confirmed the stability
O.O.OCc1ccccn1.OCc1ccccn1.OCc1ccccn1.OCc1ccccn1.[Cl-].[Cl-].[Cl-].[Cl-].[Mn+2].[Mn+2] [[Mn2(μ-Cl)2(2-CH2OHpy)4]Cl2·2H2O],"TOF (catalytic activity, H2O2 decomposition)",[8],0.0187 min⁻¹
"OCCc1ccccn1.OCCc1ccccn1.[Cu+2].[Cu+2].[O-]CCc1ccccn1.[O-]CCc1ccccn1.[O-][Cl+3]([O-])([O-])[O-].[O-][Cl+3]([O-])([O-])[O-] [complex 3, [Cu2(2-(HOCH2CH2)py)2(2-(OCH2CH2)py)2](ClO4)2]",solubility in water,solubility,soluble in water
same,IC50,[1]; [9],620 ± 50 µM
same,stability in buffer solution (PBS),[7],confirmed the stability
